Data on one molecule can be found in patent US11203576B2, “Aurora kinase and Janus kinase inhibitors for prevention of graft versus host disease” (H. LEE MOFFITT CANCER CENTER AND RESEARCH INSTITUTE, INC., priority 2016, dated 2021).

The nature of one data set: Bioavailability. The note with it: in vivo.
Data set [1] concerns human skin graft rejection by allogeneic PBMC. In words: Human skin xenograft rejection in NSG mice. The class given is in vivo. The note with it: 50 mg/kg daily i.p., + PBMCs, day +21. As to the method:
Using the nondiagnostic mastectomy skin from consenting donors, a 1×1 cm skin graft was transplanted onto immunodeficient NSG mice dorsally. After 30 days of healing, 5×10^6 peripheral blood mononuclear cells (PBMC) from an HLA-disparate random donor was given by i.p. injection. A cohort of mice only received a skin graft without PBMCs, as negative rejection controls. The transplanted mice were treated with AJI-100 (50 mg/kg), a dual JAK2/Aurora A kinase inhibitor, or vehicle daily by i.p. injection. Mice were humanely euthanized on day +21 to assess human anti-human skin rejection pathology. […] Conversely, skin grafts from the mice who received Vehicle+PBMCs show diffuse lymphocytic infiltration of the dermis with exocytosis, a disrupted dermal-epidermal junction, and hyperkeratosis (grade III, FIG. 15B).
Background: A xenograft is tissue or cells of one species grown in another, often human tumour cells in immunodeficient mice.

Another data set addresses JAK2 (Homo sapiens, UniProt O60674). The experiment in a line: Kinase target screen, panel of 140 kinases. The class given is biochemical. Here is the method:
(§1) Allogeneic mixed leukocyte reactions (alloMLRs) are standard assays used to assess human T cell proliferation against polyclonal or antigen-specific stimuli. In alloMLRs consisting of human T cells and allogeneicmonocyte-derived dendritic cells (DCs), the JAK2 inhibitor TG101348 reduced alloreactive T cell proliferation at concentrations of 350 nM and greater as previously reported (FIG. 9A). […] Synergistic suppression of T cells allostimulated by DCs was achieved when TG101348 and alisertib were added together at a ratio of 1:5, respectively, with a calculated combination index (CI) of <1 using the Chou-Talalay method (FIG. 9A). […] The chemical analogs AJI-214 and AJI-100 were designed and synthesized at the Moffitt Cancer Center and shown to inhibit Aurora kinase A and JAK2 with similar potency. […] Because AJI-100 is tolerated in mouse models, a kinase target screen was performed on AJI-100 to verify its activity against Aurora kinase A and JAK2 among a panel of 140 kinases.

In the next data set the target is Aurora kinase B (Homo sapiens, UniProt Q96GD4). The experiment in a line: Kinase target screen, panel of 140 kinases. To be noted: compared with alisertib. The class given is biochemical. Here is the method:
as §1

A further data set concerns the target T1, Aurora kinase A (Homo sapiens, UniProt O14965).
T1 sequence (O14965 1-403): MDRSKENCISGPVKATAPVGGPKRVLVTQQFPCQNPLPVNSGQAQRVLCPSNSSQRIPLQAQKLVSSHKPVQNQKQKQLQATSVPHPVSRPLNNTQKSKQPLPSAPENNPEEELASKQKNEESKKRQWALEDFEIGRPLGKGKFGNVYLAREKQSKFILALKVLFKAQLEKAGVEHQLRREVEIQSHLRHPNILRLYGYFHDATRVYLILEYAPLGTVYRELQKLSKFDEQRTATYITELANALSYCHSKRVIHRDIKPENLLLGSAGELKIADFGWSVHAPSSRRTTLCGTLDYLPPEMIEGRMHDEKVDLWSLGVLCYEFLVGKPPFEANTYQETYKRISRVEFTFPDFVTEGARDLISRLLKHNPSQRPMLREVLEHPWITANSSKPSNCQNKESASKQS
The experiment in a line: Kinase target screen, panel of 140 kinases. The data set is classed as biochemical. Here is the method: as §1

Data set [2] has as its system 5′ AMP activated protein kinase (AMPK). In words: Kinase target screen, panel of 140 kinases. The data set is classed as biochemical. As to the method:
as §1

The subject of a further data set is STAT3 (target of JAK2). In words: STAT3 phosphorylation in T-cells (flow cytometry). The class given is cell-based, human. To be noted: in vitro, DC- or IL-6-stimulated, vs DMSO. As to the method: IL-6-induced pSTAT3 or IL-2-induced pSTAT5 (Y694) was measured by flow cytometry.
Data set [3] has as its system T-cells allostimulated by dendritic cells (DC). In words: Allogeneic mixed leukocyte reaction (alloMLR), T-cell proliferation. The class given is cell-based, human. Here is the method:
Bulk donor T-cells were allostimulated with allogeneic DCs (DC:T-cell ratio of 1:30) as previously described (OneBlood, Tampa, Fla.)(15, 16, 20). […] As indicated, alloMLRs consisting of Treg depleted, naïve CD4^+ T-cells (Miltenyi Biotec Inc, San Diego, Calif.) were treated with a combination of ARL67156 (CD39 inhibitor, 125 μM, Sigma), AJI, or DMSO on day 0 to study the role of CD39 and ATP in this system. T-cell proliferation was measured on day 5 by a colorimetric assay (CellTiter 96 Aqueous One Solution Cell Proliferation Assay [MTS]; or CellTiter Blue, Promega, Madison, Wis.). Absorbance/optical density (OD) was analyzed at 490 nm or 590 nm, respectively. Proliferation (%)=(OD treated alloMLR−OD T-cells alone)/(OD DMSO alloMLR−OD T-cells alone)×100.

The next data set is described as follows: Solubility. The note with it: relative to the ortho-chloro analogue. The class given is physicochemical.
For data set [4], the system named is H3 Ser10 (target of Aurora). The experiment in a line: H3 Ser10 phosphorylation in DC-allostimulated T-cells (flow cytometry). The class given is cell-based, human. The note with it: 5-day allogeneic DC stimulation; AJI 750 nM, alisertib 1.75 μM, TG101348 350 nM. As to the method:
After 5 days, T cells were then harvested and directly fixed (Cytofix, BD Biosciences) for 10 min at 37° C. After washing with phosphate-buffered saline, the T cells were permeabilized with icecold methanol (90%, v/v) for at least 20 min at -20° C. The cells were stained for expression of CD3 and pH[…].

For a further data set, the system named is U937 cells. The experiment in a line: CTL generation and tumor lysis assays. The class given is cell-based, human. To be noted: NSG mice, 50 mg/kg daily, irradiated U937 on days 0 and +7, vs vehicle; listed as AJI-100.

Sequence of Aurora kinase B (Q96GD4 whole entry): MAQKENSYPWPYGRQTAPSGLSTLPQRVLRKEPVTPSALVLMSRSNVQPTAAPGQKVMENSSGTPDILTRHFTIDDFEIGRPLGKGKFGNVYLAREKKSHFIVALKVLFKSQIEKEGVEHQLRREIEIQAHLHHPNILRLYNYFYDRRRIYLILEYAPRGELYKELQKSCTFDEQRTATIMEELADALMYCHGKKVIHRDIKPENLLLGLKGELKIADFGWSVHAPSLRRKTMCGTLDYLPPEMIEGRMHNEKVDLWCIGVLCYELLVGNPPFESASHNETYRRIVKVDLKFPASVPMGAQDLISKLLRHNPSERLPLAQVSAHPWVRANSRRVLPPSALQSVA
Sequence of JAK2 (O60674 whole entry): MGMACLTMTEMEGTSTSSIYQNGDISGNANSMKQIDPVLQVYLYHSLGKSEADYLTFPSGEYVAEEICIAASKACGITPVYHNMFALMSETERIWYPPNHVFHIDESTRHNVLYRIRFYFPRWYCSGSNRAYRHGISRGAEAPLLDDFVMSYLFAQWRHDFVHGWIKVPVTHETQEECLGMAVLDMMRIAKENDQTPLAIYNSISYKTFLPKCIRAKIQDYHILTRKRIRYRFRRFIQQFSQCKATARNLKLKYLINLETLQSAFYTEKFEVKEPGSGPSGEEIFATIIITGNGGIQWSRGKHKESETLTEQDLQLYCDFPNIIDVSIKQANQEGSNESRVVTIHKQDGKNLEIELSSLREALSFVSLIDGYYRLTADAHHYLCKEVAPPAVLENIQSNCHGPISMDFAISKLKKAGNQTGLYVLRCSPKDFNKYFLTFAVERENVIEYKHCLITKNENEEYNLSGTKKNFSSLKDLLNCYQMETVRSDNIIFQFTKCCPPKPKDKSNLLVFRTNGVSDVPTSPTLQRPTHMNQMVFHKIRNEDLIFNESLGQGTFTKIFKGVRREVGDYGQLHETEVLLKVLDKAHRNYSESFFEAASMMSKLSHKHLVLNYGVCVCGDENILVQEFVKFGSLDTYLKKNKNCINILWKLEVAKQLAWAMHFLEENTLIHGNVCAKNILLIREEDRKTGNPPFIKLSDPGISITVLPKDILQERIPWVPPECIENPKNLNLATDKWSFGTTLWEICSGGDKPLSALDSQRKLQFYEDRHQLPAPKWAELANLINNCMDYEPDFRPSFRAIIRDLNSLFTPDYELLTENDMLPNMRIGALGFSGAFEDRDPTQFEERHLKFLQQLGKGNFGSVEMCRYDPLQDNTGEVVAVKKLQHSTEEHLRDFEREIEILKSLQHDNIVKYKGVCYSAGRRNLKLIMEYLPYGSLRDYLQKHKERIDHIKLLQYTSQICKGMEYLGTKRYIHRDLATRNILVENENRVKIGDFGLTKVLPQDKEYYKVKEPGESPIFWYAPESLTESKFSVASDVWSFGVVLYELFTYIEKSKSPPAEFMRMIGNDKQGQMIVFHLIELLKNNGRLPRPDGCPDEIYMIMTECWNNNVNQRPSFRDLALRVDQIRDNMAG
Protocol for U937 cells: NSG mice were transplanted with human PBMCs as described above, and treated with either AJI-100 (50 mg/kg daily) or vehicle control. Additionally, recipient mice received an inoculum of irradiated U937 cells (ATCC, 10^7/mouse) on days 0 and +7. Mice were euthanized between days +10 to +12, spleens were harvested, and human CD8^+ T-cells were isolated by magnetic bead separation. Fresh U937 target cells were labeled with Calcein-AM for 30 minutes, washed, and then cultured with the purified CD8^+ T-cells at varying effector to target ratios for 4 hours at 37° C. No additional drugs were added during this final culture. […] Percent lysis was calculated as follows: [(test fluorescence−spontaneous fluorescence)/(maximum fluorescence−spontaneous fluorescence)]×100.

Take `NC(=O)c1ccc(Nc2ncc(F)c(Nc3ccccc3)n2)cc1` [bisanilinopyrimidine (II), 5-Fluoro-N4-phenyl-N2-[4-(4-carboxamide)phenyl]pyrimidine-2,4-diamine]: in the data set “Bioavailability”, the bioavailability entry is reported as “superior bioavailability”. For the same molecule, in data set [1], the “skin graft rejection grade (Bejarano scoring system)” value is given as “grade I”. In addition, the “inhibition of JAK2 in kinase panel” value on JAK2 is recorded as “among the top three kinases inhibited”. Besides, on Aurora kinase B, the “ratio of Aurora kinase A to kinase B inhibition” value is “greater than alisertib” and the “suppression of Aurora kinase B” value was “slightly more potent suppression of Aurora kinase B than alisertib”. Further, on Aurora kinase A, the “inhibition of Aurora kinase A in kinase panel” value is on record as “among the top three kinases inhibited”. The “inhibition of AMPK” value in [2] is listed as “inhibits”. For the same molecule, in the data set with STAT3 (target of JAK2), the “STAT3 (pSTAT3 Y705) phosphorylation in T-cells” value is “less STAT3 phosphorylation”. For the same molecule, in the data set with STAT3 (target of JAK2) (listed as AJI-100), the “STAT3 (pSTAT3 Y705) phosphorylation in T-cells” value is listed as “reducing the phosphorylation”. Also, the IC50 in data set [3] (Homo sapiens, single agent added once on day 0, proliferation on day 5, DC:T-cell ratio 1:30, read-out: IC50, T-cell proliferation in alloMLR) came to 0.2 µM. The “suppression of T cells in alloMLRs” value in data set [3] (single agent, nanomolar concentrations, vs DMSO) is “significant suppression”. The solubility entry in the data set “Solubility” is given as “enhancing its solubility”. The “phosphorylation of histone 3 serine 10 (pH3 Ser10) in T-cells” value in data set [4] is “reducing the phosphorylation”. Also, the “in vivo generation of U937-specific CTL and killing of U937 targets” value in the data set on U937 cells is given as “did not inhibit CTL generation”.
